PMC10303900, “Discovery of a New Chalcone-Trimethoxycinnamide Hybrid with Antimitotic Effect: Design, Synthesis, and Structure—Activity Relationship Studies” (Pharmaceuticals, 2023)
Where two headings read alike, the source gives them in different places.

Key:
A375-C5 [1] = tested on: A375-C5; design: method as in Novais et al. [17]; conditions: 48 h; ref Novais et al. [17]; cited from earlier work
MCF-7 [2] = conditions: 48 h, cited from earlier work
HCT116 (HCT116 p53+/+) [3] = conditions: 48 h, cited from earlier work
HPAEpiC [4] = tested on: HPAEpiC; design: method as in Novais et al. [17]; conditions: 48 h, non-tumor cells; ref Novais et al. [17]; cited from earlier work
HFF-1 and HPAEpiC cells = tested on: HFF-1 and HPAEpiC cells; design: method as in PMID 34170069, PMID 34885726; conditions: fibroblasts HFF-1 and HPAEpiC; ref [12],[17]; cited from earlier work
[5] = design: method as in PMID 34885726; conditions: used at 2×GI50; ref [17]; cited from earlier work
A375-C5 [6] = assay: Sulforhodamine B (SRB) growth inhibition assay, melanoma cells; assay type: cell-based; conditions: Homo sapiens, 48 h
Procedure: (§1) A sulforhodamine B (SRB) assay was performed to evaluate the in vitro growth inhibitory activity of all synthesized hybrids, as well as intermediates in the human tumor cell lines of melanoma (A375-C5), breast adenocarcinoma (MCF-7), and colorectal carcinoma (HCT116), as well as on the non-tumor Human Pulmonary Alveolar Epithelial cell line (HPAEpiC). The concentration inducing 50% cell growth inhibition (GI50), was calculated. […] The overall results prompt us to further investigate the mechanism behind the cytotoxic activities of compounds 6, 7, and 13 in colorectal tumor cells. Moreover, in silico studies were performed, aiming to screen for drug-likeness.
(§2) A375-C5 (melanoma) and MCF-7 (breast adenocarcinoma) cell lines were obtained from the European Collection of Cell Culture, UK, and were grown in RPMI-1640 medium (Roswell Park Memorial Institute, Biochrom, Cambridge, UK) with 5% inactivated FBS (fetal bovine serum, Biochrom). HCT-116 (colon adenocarcinoma) cells were grown in DMEM medium (Dulbecco’s Modified Eagle’s, Biochrom) with 5% inactivated FBS. The non-tumor human pulmonary alveolar epithelial cells (HPAEpiC) were obtained from ScienCell Research Laboratories and grown in DMEM medium supplemented with 10% FBS and 1% non-essential amino acids (Sigma-Aldrich Co., Saint Louis, MO, USA). All cell lines were maintained in a humidified incubator (Hera Cell, Heraeus, Hanau, Germany) at 37 °C and with 5% CO2, and cell viability was regularly monitored using the exclusion trypan blue dye.
(§3) A total of 5.0 × 10^4 A375-C5, MCF-7, and HCT-116 cells, or 6.0 × 10^4 HPAEpiC cells were seeded in 96-well plates and incubated at 37 °C and 5% CO2 to allow for cell attachment. After 24 h, cells were treated with two-fold serial dilutions of test compounds (0–150 µM), or with DMSO as the compound solvent. In parallel, cells in a time-zero (T0) plate, without treatment, were fixed with 50% (m/v) trichloroacetic acid (TCA, Merck Millipore, Darmstadt, Germany), for 1 h at 4 °C, and then washed with distilled water and left to dry. Forty-eight hours after compound treatment, cells were fixed with 50% TCA and stained with SRB (Sigma-Aldrich Co., Ltd., Gillingham, UK) for 30 min at room temperature, followed by 5 rounds of washing with 1% (v/v) acetic acid (Merck Milli-pore, Darmstadt, Germany). SRB–protein complexes were then solubilized with […] Tris buffer (Sigma-Aldrich Co., Ltd., Gillingham, UK) for 30 min, and the absorbance was measured at 515 nm in a microplate reader (Biotek Synergy 2, BioTek Instruments, Inc., Winooski, VT, USA). A dose-response curve was obtained for each cell line, and the concentration that caused 50% cell growth inhibition (GI50) was calculated.

HPAEpiC [7] = assay: SRB growth inhibition assay, non-tumor pulmonary alveolar epithelial cells; assay type: cell-based; conditions: Homo sapiens, Epithelial cell, 48 h
Procedure: as §1, §2, §3

HCT116 p53−/− = assay: SRB growth inhibition assay, p53 knocked-out colorectal cells; assay type: cell-based, human; conditions: for GI50: Homo sapiens, HCT-116, Table 2, 48 h
Procedure: as §3

p53–MDM2 interaction [8] = biological target: T1, p53–MDM2 interaction (Homo sapiens, UniProt Q00987); design: method as in doi:10.1016/j.arabjc.2016.04.015; conditions: ref [16]; cited from earlier work
T1 construct: expressed in transfected cells; host or cells: Saccharomyces cerevisiae strain CG379
T1 sequence (Q00987 whole entry): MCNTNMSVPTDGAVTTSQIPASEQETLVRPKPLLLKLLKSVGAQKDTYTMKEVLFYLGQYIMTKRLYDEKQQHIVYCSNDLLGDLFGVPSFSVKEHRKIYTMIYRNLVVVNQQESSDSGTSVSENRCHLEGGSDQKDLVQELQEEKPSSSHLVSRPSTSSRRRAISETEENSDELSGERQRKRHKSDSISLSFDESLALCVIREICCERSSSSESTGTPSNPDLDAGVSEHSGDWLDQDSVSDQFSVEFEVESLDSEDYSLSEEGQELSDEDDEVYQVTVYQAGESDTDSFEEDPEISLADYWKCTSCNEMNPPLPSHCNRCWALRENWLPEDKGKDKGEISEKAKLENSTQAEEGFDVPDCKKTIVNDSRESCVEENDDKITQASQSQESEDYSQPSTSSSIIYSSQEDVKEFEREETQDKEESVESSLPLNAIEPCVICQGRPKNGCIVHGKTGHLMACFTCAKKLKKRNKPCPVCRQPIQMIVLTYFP

MCF-7 [9] = assay: SRB growth inhibition assay, breast adenocarcinoma cells; assay type: cell-based; conditions: Homo sapiens, MCF7, 48 h
Procedure: as §1, §2, §3

HCT116 (HCT116 p53+/+) [10] = assay: SRB growth inhibition assay, colorectal carcinoma cells; assay type: cell-based; conditions: Homo sapiens, HCT-116
Procedure: as §1, §2, §3

p53–MDM2 interaction [11] = biological target: T1, p53–MDM2 interaction; assay: Yeast targeted screening assay of p53–MDM2 interaction; conditions: 10 μM, yeast cell-based assay, data not shown
Procedure: However, since CM-M345 (1) has been previously reported as a p53-MDM2 inhibitor by our research group, the effect of 10 μM of compounds 6, 7, and 13 on the p53–MDM2 interaction was analyzed using yeast cell-based assays.
Saccharomyces cerevisiae (strain CG379) expressing human wt p53 alone and combined with human MDM2 were obtained in previous works. For the expression of human proteins (routinely grown in minimal selective medium), cells were diluted to 0.05 OD600 in selective induction medium containing 2% (w/w) galactose, 1% (w/w) raffinose, 0.7% (w/w) yeast nitrogen base without amino acids from Difco (Quilaban, Sintra, Portugal), and all the amino acids required for yeast growth ([…]) except leucine and tryptophan. Yeast cells were incubated at 30 °C under continuous orbital shaking (200 rpm) with 10 µM compounds or 0.1% DMSO only, for approximately 42 h (time required by the control yeast, co-transformed with the empty vectors and incubated with DMSO only, to achieve 0.4 OD600). Yeast growth was analyzed by counting the number of colony-forming units (CFU) after 2 days of incubation at 30 °C on Sabouraud Dextrose Agar from Liofilchem (Frilabo, Porto, Portugal).

HCT116 cells [12] = assay: Apoptosis detection via flow cytometry (Annexin V-FITC/PI); assay type: cell-based, human; conditions: HCT116, 48 h, vs untreated or DMSO
Procedure: Double labeling with annexin V-FITC and propidium iodide dyes was used to detect cells going through apoptotic events, using a flow cytometer in order to obtain insights into the mechanism by which compounds 6, 7, and 13 generate antiproliferative activity against colorectal carcinoma cells. For that, HCT116 cells were exposed to each compound for 48 h.
To evaluate apoptotic cell death, the “Annexin V-FITC Apoptosis Detection Kit” (eBioscience, Vienna, Austria) was used according to the manufacturer’s instructions. Briefly, 1.2 × 10^5 cells/well were seeded into 6-well plates, and 24 h later, cells were treated with compounds 6, 7, and 13. After 48 h, floating and adherent cells were collected, pelleted via centrifugation (1000 rpm, 5 min), and suspended in binding buffer. Annexin V-FITC was added and incubated for 10 min, protected from light. Cells were washed and resuspended in binding buffer, and 20 μg/mL of propidium iodide (PI) was added. Fluorescence was assessed using the BD Accuri™ C6 Plus flow cytometer (BD Biosciences, Qume Drive, San Jose, CA, USA), and the data were analyzed with the BD Accuri TM C6 Plus software (version 1.0.27.1, San Jose, CA, USA). At least 20,000 events per sample were collected.

HCT116 cells [13] = assay: Mitotic arrest / mitotic index by phase-contrast microscopy; assay type: cell-based, human; conditions: HCT116, 24 h, phase contrast microscopy
Procedure: Disruption of cell cycle progression is considered one of the most common cytotoxic mechanisms of anticancer drugs. Moreover, the antimitotic effect of BP-M345 (2) has been previously reported. Therefore, compounds 6, 7, and 13 were tested for their capability to induce cell cycle arrest. HCT116 cells were exposed for 24 h to the compounds and then analyzed using phase contrast microscopy for morphological changes. Untreated and dimethyl sulfoxide (DMSO; solvent)-treated cells were used as negative controls. Cell exposure to nocodazole, an antimitotic agent, was used as a positive control. […] We thus calculated the mitotic index (MI), and observed a significant increase in MI in 7-treated cells (22.76 ± 4.30%) compared to the untreated (12.68 ± 1.98%) or DMSO-treated (12.81 ± 1.45%) (Figure 4c).
A total of 1.2 × 10^5 HCT-116 cells were grown in six-well dishes and treated for 24 h with 3.26 µM of compound 7. Cells treated with 1 µM nocodazole were used as a positive control for antimitotic activity. Untreated cells and cells treated with DMSO were included to exclude the cytotoxicity of the compound solvent. Mitotic index, and the percentage of mitotic cells over the total cell population were determined via cell-rounding under phase-contrast microscopy from at least ten random microscope fields.
For phase contrast microscopy images, a Nikon TE 2000-U microscope (Nikon, Amsterdam, The Netherlands) with a 10× objective was used, coupled to a DXM1200F digital camera with Nikon ACT-1 software (Melville, NY, USA). For fluorescence images, an Axio Observer Z.1 SD microscope (Carl Zeiss, Germany) was used, coupled to an AxioCam MR3, with the Plan Apochromatic 63×/NA 1.4 objective. The images were processed using ImageJ, version 1.51.

[14] = tested on: A375-C5, MCF-7 and HCT116 cell lines; assay: SRB growth inhibition, range over the tumor cell lines of Table 1; assay type: cell-based; conditions: Homo sapiens; SAR discussion, values of Table 1
Procedure: Considering the antiproliferative effects on tumor cells of all the studied compounds (Table 1), some SAR considerations may be undertaken (Figure 2). […] Nevertheless, this effect is not observed for the flavone derivatives 15 and 16. […] Additionally, with the screening of the synthetic intermediates, some conclusions can also be inferred (Figure 2).
as §3

[15] = SRB, 48 h, read-out: GI50 HCT116
[16] = Table 2, 48 h, read-out: GI50 HCT116 p53+/+

GI50 (A375-C5 [6]) [nM] | SI, selective index (GI50 of HCT116 p53−/−/GI50 of HCT116 p53+/+) (HCT116 p53−/−) | GI50 (MCF-7 [9]) [nM] | GI50 (HCT116 (HCT116 p53+/+) [10]; [15]) [nM] | GI50 (HCT116 (HCT116 p53+/+) [10]; [16]) [nM] | GI50 (HCT116 p53−/−) [nM] | GI50 [14] [nM] | SMILES | GI50 (A375-C5 [1]) [nM] | GI50 (MCF-7 [2]; ref Novais et al. [17]) [nM] | GI50 (HCT116 (HCT116 p53+/+) [3]; ref Moreira et al. [12]) [nM] | GI50 (HPAEpiC [4]) [nM] | Cytotoxicity in non-tumor cell lines (HFF-1 and HPAEpiC cells) | Mitotic index (MI) [5] [%] | GI50 (HPAEpiC [7]) [nM] | GI50 (MCF-7 [2]; ref Pereira et al. [16]) [nM] | GI50 (HCT116 (HCT116 p53+/+) [3]; ref Pereira et al. [16]) [nM] | Inhibition of the p53–MDM2 interaction in yeast-based assays (p53–MDM2 interaction [8]) | Effect on the p53–MDM2 interaction (reversal of the negative growth effect of MDM2 on p53) (p53–MDM2 interaction [11]) | Apoptosis induction (Annexin V-positive cells) (HCT116 cells [12]) | Accumulation of bright and rounded (mitotic) cells (HCT116 cells [13])
 |  |  |  |  |  |  | COc1cc(/C=C2\COC/C(=C\c3cc(OC)c(OC)c(OC)c3)C2=O)cc(OC)c1OC [BP-M345 (2)] | 240 ± 10 | 450 ± 60 | 170 ± 10 | 1070 ± 160 | low cytotoxicity | 29.8 ± 5.6 |  |  |  |  |  |  | 
5570 ± 60 | 1.31 |  |  |  |  |  | CCCc1c(OC)ccc(C(=O)/C=C/c2cc(OC)c(OC)c(OC)c2)c1O [CM-M345 (1), reference compound] |  |  |  |  |  |  | 6100 ± 660 | 2300 ± 100 | 2600 ± 200 | inhibitor of the interaction |  |  | 
3610 ± 1110 | 0.68 | 39800 ± 2110 | 2810 ± 650 | 2810 ± 650 | 1900 ± 300 | 2810 to 39800 | CCCc1c(OCCNC(=O)OC(C)(C)C)ccc(C(=O)/C=C/c2cc(OC)c(OC)c(OC)c2)c1O [Compound 6, tert-butyl(E)-(2-(3-hydroxy-2-propyl-4-(3-(3,4,5-trimethoxyphenyl)acryloyl)phenoxy)ethyl)carbamate] |  |  |  |  |  |  | 9600 ± 940 |  |  |  | none of the tested compounds significantly reversed the negative inhibitory growth effect of MDM2 on p53 | induces apoptotic tumor cell death | not observed
9370 ± 900 | 1.54 | 18800 ± 3460 | 2660 ± 870 | 2660 ± 870 | 4100 ± 500 |  | CCCc1c(OCC(=O)Nc2cc(OC)c(OC)c(OC)c2)ccc(C(=O)/C=C/c2cc(OC)c(OC)c(OC)c2)c1O [Compound 13, (E)-2-(3-hydroxy-2-propyl-4-(3-(3,4,5-trimethoxyphenyl)acryloyl)phenoxy)-N-(3,4,5-trimethoxyphenyl)acetamide] |  |  |  |  |  |  | 10800 ± 230 |  |  |  | none of the tested compounds significantly reversed the negative inhibitory growth effect of MDM2 on p53 | induces apoptotic tumor cell death | not observed
